Experimental data as given in publication PMC8429728, “TNK1 is a ubiquitin-binding and 14-3-3-regulated kinase that can be targeted to block tumor growth” (Nature Communications, 2021).
Like-named read-outs stand apart in the source and are kept apart here.

Experiments:
Experiment in all cases: biochemical
Set-up in all cases: Reaction Biology 371-kinase panel at Km ATP, per cent enzyme activity relative to DMSO, single dose in duplicate
Conditions in all cases: duplicate measurements, Km ATP
ARAF = molecular target: T1, ARAF (Homo sapiens, UniProt P10398)
T1 sequence (P10398 1-606): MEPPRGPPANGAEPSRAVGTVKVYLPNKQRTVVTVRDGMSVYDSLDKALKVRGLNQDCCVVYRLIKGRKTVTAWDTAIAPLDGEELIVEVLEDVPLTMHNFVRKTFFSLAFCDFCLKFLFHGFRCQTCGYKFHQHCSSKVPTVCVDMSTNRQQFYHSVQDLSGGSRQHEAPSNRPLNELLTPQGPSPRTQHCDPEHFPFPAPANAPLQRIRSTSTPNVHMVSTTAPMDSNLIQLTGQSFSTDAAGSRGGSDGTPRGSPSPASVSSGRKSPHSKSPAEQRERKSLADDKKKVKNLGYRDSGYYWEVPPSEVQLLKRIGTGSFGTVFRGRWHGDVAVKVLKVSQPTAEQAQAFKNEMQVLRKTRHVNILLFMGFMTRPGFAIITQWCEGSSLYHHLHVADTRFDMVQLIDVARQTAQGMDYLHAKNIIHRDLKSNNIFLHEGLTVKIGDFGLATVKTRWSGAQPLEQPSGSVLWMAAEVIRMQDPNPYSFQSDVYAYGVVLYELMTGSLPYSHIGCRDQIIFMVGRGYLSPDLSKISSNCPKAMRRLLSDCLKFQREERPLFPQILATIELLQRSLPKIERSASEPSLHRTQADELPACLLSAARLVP
In short: (§1)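 First, kinases from a 371-member panel were exposed in vitro to 300 nM inhibitor. Next, % enzyme activity versus DMSO was computed. Finally, IC50s were derived by sigmoidal dose-response fitting with variable slope and a zero bottom constraint.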

CAMK2b = CAMK2b (Homo sapiens, UniProt Q13554)
CAMK2b, sequence (Q13554 whole entry): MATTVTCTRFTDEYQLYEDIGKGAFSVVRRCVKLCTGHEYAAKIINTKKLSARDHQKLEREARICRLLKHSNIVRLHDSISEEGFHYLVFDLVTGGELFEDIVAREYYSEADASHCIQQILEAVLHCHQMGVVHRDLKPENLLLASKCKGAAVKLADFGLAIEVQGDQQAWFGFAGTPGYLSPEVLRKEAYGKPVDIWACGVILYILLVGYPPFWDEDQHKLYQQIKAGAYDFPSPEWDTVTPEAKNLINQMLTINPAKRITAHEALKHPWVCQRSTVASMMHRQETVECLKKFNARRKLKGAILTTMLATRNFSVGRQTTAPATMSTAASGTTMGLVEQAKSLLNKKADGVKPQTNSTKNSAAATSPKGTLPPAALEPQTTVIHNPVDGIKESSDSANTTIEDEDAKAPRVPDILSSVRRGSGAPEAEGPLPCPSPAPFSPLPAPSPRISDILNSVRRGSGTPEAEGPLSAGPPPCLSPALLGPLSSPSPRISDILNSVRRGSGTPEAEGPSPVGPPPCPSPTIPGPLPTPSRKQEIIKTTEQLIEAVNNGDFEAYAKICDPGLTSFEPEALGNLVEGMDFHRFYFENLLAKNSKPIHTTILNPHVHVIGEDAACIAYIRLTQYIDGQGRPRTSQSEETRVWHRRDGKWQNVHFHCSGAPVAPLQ
In short: as §1

CDK1/cyclin A = CDK1/cyclin A (Homo sapiens, UniProt P06493)
In short: as §1

CDK6/cyclin D1 = CDK6/cyclin D1 (Homo sapiens, UniProt Q00534)
In short: as §1

CHK2 = molecular target: T2, CHK2 (Homo sapiens, UniProt O96017)
T2 construct: gene CHEK2
T2 sequence (O96017 whole entry): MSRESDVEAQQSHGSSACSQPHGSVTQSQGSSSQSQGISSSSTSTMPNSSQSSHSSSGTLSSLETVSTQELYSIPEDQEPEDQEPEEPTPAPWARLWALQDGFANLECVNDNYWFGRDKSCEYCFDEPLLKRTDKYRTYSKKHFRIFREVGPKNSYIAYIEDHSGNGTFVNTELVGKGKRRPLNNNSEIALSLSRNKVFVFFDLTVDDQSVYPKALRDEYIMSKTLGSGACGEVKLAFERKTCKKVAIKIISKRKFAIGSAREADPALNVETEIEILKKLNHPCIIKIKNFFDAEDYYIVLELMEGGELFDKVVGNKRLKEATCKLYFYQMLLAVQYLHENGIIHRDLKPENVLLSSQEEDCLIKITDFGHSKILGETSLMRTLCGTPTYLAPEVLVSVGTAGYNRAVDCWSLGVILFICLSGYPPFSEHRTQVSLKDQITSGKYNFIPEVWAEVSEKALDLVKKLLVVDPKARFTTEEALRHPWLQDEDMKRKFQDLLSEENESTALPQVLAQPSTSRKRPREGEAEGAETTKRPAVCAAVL
In short: as §1

EPHA5 = EPHA5 (Homo sapiens, UniProt P54756)
EPHA5, sequence (P54756 whole entry): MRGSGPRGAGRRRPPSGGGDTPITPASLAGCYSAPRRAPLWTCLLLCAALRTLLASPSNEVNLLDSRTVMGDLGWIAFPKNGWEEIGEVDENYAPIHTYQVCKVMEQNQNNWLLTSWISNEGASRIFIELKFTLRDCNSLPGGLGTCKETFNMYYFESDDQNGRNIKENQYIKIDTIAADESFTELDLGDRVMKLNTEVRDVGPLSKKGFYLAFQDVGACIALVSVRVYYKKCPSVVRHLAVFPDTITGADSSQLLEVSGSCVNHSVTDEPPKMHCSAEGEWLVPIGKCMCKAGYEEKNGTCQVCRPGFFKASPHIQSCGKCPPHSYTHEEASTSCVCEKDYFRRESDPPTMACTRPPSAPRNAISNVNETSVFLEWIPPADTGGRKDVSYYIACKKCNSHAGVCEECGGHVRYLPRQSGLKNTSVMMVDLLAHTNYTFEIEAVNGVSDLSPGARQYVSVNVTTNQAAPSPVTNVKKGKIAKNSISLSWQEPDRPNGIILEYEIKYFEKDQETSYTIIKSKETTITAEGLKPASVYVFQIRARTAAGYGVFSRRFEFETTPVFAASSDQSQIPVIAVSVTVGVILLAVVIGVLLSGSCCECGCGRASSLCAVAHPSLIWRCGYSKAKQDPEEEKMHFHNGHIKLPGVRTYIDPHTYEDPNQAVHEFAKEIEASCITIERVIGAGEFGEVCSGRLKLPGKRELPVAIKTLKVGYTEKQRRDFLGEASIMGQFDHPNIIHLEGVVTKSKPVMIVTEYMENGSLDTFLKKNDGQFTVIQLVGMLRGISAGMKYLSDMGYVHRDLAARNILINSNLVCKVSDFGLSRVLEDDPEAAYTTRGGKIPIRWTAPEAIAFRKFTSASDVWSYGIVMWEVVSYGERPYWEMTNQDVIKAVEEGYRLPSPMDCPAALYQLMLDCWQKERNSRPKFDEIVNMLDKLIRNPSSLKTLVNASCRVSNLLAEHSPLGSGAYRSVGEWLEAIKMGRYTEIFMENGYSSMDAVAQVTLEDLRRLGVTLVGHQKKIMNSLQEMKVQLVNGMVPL
In short: as §1

FER = FER (Homo sapiens, UniProt P16591)
FER, sequence (P16591 whole entry): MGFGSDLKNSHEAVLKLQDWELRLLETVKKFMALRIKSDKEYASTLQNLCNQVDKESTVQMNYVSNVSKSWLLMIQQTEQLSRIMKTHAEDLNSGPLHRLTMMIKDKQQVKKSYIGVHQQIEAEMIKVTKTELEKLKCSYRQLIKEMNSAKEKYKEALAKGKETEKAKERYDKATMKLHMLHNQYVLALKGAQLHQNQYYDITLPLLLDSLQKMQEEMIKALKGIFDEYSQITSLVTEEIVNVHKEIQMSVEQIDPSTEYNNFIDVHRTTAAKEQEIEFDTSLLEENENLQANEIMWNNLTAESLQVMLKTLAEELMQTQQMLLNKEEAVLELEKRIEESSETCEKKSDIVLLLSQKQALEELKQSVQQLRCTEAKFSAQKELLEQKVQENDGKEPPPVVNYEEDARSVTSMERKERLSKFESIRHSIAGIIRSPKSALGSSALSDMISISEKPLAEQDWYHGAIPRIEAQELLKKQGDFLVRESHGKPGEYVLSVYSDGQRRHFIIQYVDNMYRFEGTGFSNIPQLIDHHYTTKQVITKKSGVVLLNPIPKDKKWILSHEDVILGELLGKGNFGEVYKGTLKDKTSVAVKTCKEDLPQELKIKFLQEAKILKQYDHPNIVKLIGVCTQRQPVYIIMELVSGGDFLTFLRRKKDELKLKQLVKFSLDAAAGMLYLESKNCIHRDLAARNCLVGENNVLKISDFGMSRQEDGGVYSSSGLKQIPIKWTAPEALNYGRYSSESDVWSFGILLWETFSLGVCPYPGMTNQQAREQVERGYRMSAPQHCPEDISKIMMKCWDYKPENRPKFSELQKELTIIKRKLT
In short: as §1

FES/FPS = FES/FPS (Homo sapiens, UniProt P07332)
FES/FPS, sequence (P07332 whole entry): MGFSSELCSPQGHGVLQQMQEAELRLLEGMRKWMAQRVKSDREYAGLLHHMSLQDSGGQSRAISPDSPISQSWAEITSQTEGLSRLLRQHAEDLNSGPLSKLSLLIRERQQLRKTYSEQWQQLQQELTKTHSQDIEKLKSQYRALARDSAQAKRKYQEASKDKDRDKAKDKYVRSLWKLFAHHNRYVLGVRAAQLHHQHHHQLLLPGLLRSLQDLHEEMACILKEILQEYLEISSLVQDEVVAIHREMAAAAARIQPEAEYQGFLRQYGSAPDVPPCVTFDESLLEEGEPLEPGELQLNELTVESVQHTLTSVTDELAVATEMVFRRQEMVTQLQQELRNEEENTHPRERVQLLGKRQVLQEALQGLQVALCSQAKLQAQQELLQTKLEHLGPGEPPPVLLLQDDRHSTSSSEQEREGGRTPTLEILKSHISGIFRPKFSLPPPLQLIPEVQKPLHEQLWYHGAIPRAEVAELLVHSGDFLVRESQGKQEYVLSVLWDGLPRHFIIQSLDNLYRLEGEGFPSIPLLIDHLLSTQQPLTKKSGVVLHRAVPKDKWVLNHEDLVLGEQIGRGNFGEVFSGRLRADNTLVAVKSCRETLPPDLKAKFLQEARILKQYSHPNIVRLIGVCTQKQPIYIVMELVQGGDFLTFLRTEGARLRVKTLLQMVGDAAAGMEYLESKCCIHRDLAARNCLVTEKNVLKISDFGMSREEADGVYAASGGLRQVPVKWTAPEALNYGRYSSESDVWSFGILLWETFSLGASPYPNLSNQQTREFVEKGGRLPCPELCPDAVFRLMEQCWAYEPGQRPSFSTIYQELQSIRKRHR
In short: as §1

FLT1/VEGFR1 = FLT1/VEGFR1 (Homo sapiens, UniProt P17948)
In short: as §1

MLK3/MAP3K11 = MLK3/MAP3K11 (Homo sapiens, UniProt Q16584)
In short: as §1

MYLK3 = MYLK3 (Homo sapiens, UniProt Q32MK0)
MYLK3, sequence (Q32MK0 whole entry): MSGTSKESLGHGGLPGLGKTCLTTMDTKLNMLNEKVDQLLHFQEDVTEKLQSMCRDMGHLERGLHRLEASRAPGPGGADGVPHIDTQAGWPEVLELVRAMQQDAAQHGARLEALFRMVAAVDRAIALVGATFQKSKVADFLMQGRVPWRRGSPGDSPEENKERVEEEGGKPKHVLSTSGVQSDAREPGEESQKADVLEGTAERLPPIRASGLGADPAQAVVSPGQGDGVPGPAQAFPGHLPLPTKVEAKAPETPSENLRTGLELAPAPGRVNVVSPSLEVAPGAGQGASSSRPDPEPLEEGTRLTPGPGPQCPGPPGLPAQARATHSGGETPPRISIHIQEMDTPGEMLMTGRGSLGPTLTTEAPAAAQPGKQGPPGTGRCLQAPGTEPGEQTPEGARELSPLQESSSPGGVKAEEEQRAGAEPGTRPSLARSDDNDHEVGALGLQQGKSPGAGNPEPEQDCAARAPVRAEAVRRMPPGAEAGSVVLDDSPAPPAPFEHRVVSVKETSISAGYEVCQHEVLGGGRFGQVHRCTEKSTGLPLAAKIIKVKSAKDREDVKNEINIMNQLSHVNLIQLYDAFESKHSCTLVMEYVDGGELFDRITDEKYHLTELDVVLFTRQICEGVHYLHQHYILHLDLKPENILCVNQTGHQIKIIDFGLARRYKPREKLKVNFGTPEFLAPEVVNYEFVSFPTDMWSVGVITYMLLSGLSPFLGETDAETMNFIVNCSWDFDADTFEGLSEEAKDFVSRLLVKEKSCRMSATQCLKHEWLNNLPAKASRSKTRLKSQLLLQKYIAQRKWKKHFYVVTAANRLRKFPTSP
In short: as §1

NIM1 = molecular target: T3, NIM1 (Homo sapiens, UniProt Q8IY84)
T3 construct: gene NIM1K
In short: as §1

P38a/MAPK14 = P38a/MAPK14 (Homo sapiens, UniProt Q16539)
In short: as §1

PKAcg = molecular target: T4, PKAcg (Homo sapiens, UniProt P22612)
T4 construct: gene PRKACG
T4 sequence (P22612 whole entry): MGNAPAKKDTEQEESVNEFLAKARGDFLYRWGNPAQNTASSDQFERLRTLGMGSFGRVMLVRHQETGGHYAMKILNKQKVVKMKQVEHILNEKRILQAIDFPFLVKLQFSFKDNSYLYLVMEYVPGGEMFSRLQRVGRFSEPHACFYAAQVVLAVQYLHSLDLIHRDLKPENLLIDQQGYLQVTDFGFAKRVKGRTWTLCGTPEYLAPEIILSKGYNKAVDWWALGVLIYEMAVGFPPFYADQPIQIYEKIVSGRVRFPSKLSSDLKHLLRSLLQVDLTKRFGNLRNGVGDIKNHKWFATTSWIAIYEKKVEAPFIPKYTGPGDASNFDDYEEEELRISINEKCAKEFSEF
In short: as §1

TAOK1 = TAOK1 (Homo sapiens, UniProt Q7L7X3)
In short: as §1

c-Kit = c-Kit (Homo sapiens, UniProt P10721)
In short: as §1

[1] = read-out: % Enzyme Activity (relative to DMSO controls) / TP-0005801 (0.3µM) / Data 1
[2] = read-out: % Enzyme Activity (relative to DMSO controls) / TP-0005801 (0.3µM) / Data 2

SMILES: COc1cc(N2CCN(C)CC2)c(C)cc1Nc1ncc(Br)c(Nc2cccnc2N(C)C)n1 [TP-5801]
- remaining activity at 0.3 µM (ARAF; [1]): 88.1%
- remaining activity at 0.3 µM (ARAF; [2]): 82.3%
- remaining activity at 0.3 µM (CAMK2b; [1]): 64.8%
- remaining activity at 0.3 µM (CAMK2b; [2]): 64%
- remaining activity at 0.3 µM (CDK1/cyclin A; [1]): 102%
- remaining activity at 0.3 µM (CDK1/cyclin A; [2]): 101%
- remaining activity at 0.3 µM (CDK6/cyclin D1; [1]): 88.2%
- remaining activity at 0.3 µM (CDK6/cyclin D1; [2]): 87.5%
- remaining activity at 0.3 µM (CHK2; [1]): 103%
- remaining activity at 0.3 µM (CHK2; [2]): 102%
- remaining activity at 0.3 µM (EPHA5; [1]): 122%
- remaining activity at 0.3 µM (EPHA5; [2]): 117%
- remaining activity at 0.3 µM (FER; [1]): 11.7%
- remaining activity at 0.3 µM (FER; [2]): 11.4%
- remaining activity at 0.3 µM (FES/FPS; [1]): 18.2%
- remaining activity at 0.3 µM (FES/FPS; [2]): 17.6%
- remaining activity at 0.3 µM (FLT1/VEGFR1; [1]): 96.8%
- remaining activity at 0.3 µM (FLT1/VEGFR1; [2]): 96.2%
- remaining activity at 0.3 µM (MLK3/MAP3K11; [1]): 89.5%
- remaining activity at 0.3 µM (MLK3/MAP3K11; [2]): 89.3%
- remaining activity at 0.3 µM (MYLK3; [1]): 110%
- remaining activity at 0.3 µM (MYLK3; [2]): 109%
- remaining activity at 0.3 µM (NIM1; [1]): 102%
- remaining activity at 0.3 µM (NIM1; [2]): 95.6%
- remaining activity at 0.3 µM (P38a/MAPK14; [1]): 89%
- remaining activity at 0.3 µM (P38a/MAPK14; [2]): 88.1%
- remaining activity at 0.3 µM (PKAcg; [1]): 95.5%
- remaining activity at 0.3 µM (PKAcg; [2]): 92.1%
- remaining activity at 0.3 µM (TAOK1; [1]): 73.3%
- remaining activity at 0.3 µM (TAOK1; [2]): 68.3%
- remaining activity at 0.3 µM (c-Kit; [1]): 85.3%
- remaining activity at 0.3 µM (c-Kit; [2]): 85.1%
